The results in this text go back to patent publication US7855213B2 (AstraZeneca AB, priority 2006, dated 2010).

As usually defined, the IC50 is the point on the concentration scale where inhibition reaches its midpoint. Read a low IC50 as greater potency in that assay.

Structures can show the parent of a compound that is named as a salt.

The target in the test is T1, human β-Secretase (Homo sapiens, UniProt P56817).
T1 construct: The soluble part of the human β-Secretase (AA 1-AA 460) was cloned; made in house
T1 sequence (P56817 22-460): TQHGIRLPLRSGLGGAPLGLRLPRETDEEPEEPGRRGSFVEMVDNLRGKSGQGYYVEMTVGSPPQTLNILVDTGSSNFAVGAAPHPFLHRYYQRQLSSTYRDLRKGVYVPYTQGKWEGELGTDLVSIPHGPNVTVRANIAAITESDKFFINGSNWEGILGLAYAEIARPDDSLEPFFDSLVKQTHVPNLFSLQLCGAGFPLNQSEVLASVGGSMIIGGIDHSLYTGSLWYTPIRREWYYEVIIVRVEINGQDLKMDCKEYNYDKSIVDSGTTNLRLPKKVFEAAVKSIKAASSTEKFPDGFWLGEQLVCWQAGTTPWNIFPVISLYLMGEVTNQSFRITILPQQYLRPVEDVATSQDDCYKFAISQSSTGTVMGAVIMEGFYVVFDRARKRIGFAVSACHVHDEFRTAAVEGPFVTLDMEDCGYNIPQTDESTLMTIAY
As to the kind of experiment: TR-FRET assay. Format: biochemical. A general note: Time-resolved FRET reads energy transfer from a long-lived donor to a nearby acceptor.
Turning to `NC1=NC(c2cccc(-c3cncnc3)c2)(c2ccncc2F)c2ccccc21` (stereo not shown) [Example 72, 1-(3-Fluoropyridin-4-yl)-1-(3-pyrimidin-5-ylphenyl)-1H-isoindol-3-amine 1.25 acetate], the half-maximal inhibitory concentration (IC50) was 250 nM. Under `COc1cccc(-c2cccc(C3(c4ccc5c(c4)OCO5)N=C(N)c4ccccc43)c2)c1` (stereo not shown) [Example 33, 3-Benzo[1,3]dioxol-5-yl-3-(3′-methoxy-biphenyl-3-yl)-3H-isoindol-1-ylamine trifluoroacetate] stands 1330 nM; under `COc1ccc(C2(c3cccc(-c4cccc(OC)c4)c3)N=C(N)c3ccc(F)cc32)cc1` (stereo not shown) [Example 80, 6-Fluoro-1-(3′-methoxybiphenyl-3-yl)-1-(4-methoxyphenyl)-1H-isoindol-3-amine], 84 nM; under `NC1=NC(c2ccc(C(F)(F)F)cc2)(c2cccc(-c3cccnc3F)c2)c2ccccc21` (stereo not shown) [Example 66, 1-[3-(2-Fluoropyridin-3-yl)phenyl]-1-[4-(trifluoromethyl)phenyl]-1H-isoindol-3-amine], 520 nM.

For the molecule `NC1=NC(c2ccc(F)c(-c3cccnc3F)c2)(c2ccncc2F)c2ccccc21` (stereo not shown) [Example 76, 1-[4-Fluoro-3-(2-fluoropyridin-3-yl)phenyl]-1-(3-fluoropyridin-4-yl)-1H-isoindol-3-amine 1.5 acetate], the IC50 amounted to 100 nM. Turning to `NC1=NC(c2ccncc2)(c2ccc(F)c(-c3cncc(F)c3)c2)c2ccccc21` (stereo not shown) [Example 69, 1-[4-Fluoro-3-(5-fluoropyridin-3-yl)phenyl]-1-pyridin-4-yl-1H-isoindol-3-amine 0.75 acetate], the concentration for half-maximal inhibition (IC50) was 99 nM. For `NC1=NC(c2ccc(F)c(-c3cncc(F)c3)c2)(c2ccncc2F)c2ccccc21` (stereo not shown) [Example 75, 1-[4-Fluoro-3-(5-fluoropyridin-3-yl)phenyl]-1-(3-fluoropyridin-4-yl)-1H-isoindol-3-amine 1.5 acetate] the value was 280 nM.
